Data reported in patent US8748430B2, “Pyrrolidin-3yl-methylamine quinoxaline derivatives” (Hoffmann-La Roche Inc, priority 2008, dated 2014).

Biological target: T1, human orexin-2 (hOX2) receptor (Homo sapiens, UniProt O43614)
T1 construct: expressed in transfected cells
T1 sequence (O43614 1-444): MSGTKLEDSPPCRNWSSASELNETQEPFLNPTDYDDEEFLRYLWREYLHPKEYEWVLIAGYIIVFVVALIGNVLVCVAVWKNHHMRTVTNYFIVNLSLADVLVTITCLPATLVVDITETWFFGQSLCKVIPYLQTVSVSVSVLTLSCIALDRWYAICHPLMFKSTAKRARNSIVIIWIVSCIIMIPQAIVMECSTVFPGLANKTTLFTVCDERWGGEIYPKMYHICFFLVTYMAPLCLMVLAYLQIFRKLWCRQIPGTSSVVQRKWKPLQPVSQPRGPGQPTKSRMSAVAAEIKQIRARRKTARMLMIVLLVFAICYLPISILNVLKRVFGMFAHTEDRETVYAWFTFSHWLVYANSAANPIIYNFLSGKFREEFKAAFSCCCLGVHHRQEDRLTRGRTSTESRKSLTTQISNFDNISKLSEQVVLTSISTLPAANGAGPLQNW
Experiment: Intracellular Ca2+ mobilization assay (FLIPR), antagonism of orexin-A at EC80
Assay type: cell-based
Conditions: CHO(dHFr-) cells stably expressing hOX2; orexin-A at EC80 as agonist; antagonist applied 25 min before; Kb=IC50/(1+[A]/EC50); read-out: Kb (μM) OX2R (human)
Method: Intracellular Ca^2+ Mobilization Assay
The Chinese Hamster Ovary (dHFr-) mutant cell line stably expressing human orexin-1 (hOX1) or human orexin-2 (hOX2) receptors were maintained in Dulbecco's Modified Eagle Medium (1×) with GlutaMax™1, 4500 mg/L D-Glucose and Sodium Pyruvate (Catalog No. 31966-021, Invitrogen, Carlsbad, Calif.), 5% dialyzed fetal calf serum (Catalog No. 26400-044), 100 μg/ml penicillin and 100 μg/ml streptomycin. The cells were seeded at 5×10^4 cells/well in the poly-D-lysine treated, 96-well, black/clear-bottomed plates (Catalog No. BD356640, BD Biosciences, Palo Alto, Calif.). 24 h later, the cells were loaded for 1 h at 37° C. with 4 μM Flou-4 acetoxymethyl ester (Catalog No. F-14202, Molecular Probes, Eugene, Oreg.) in FLIPR buffer (1×HBSS, 20 mM HEPES, 2.5 mM Probenecid). Hanks' Balanced Salt Solution (HBSS) (10×) (catalog No. 14065-049) and HEPES (1M) (catalog No. 15630-056) were purchased from Invitrogen, Carlsbad, Calif. Probenecid (250 mM) (catalog No. P8761) was from Sigma, Buchs, Switzerland. The cells were washed five times with FLIPR buffer to remove excess dye and intracellular calcium mobilization, [Ca^2+]i were measured using a Fluorometric Imaging Plate Reader (FLIPR-96, Molecular Devices, Menlo Park, Calif.) as described previously (Malherbe et al., Mol. Pharmacol., 64, 823-832, 2003). Orexin A (catalog No. 1455, Toris Cookson Ltd, Bristol, UK) was used as agonist. Orexin A ([…] stock solution in DMSO) was diluted in FLIPR buffer+0.1% BSA. The EC50 and EC80 values of orexin-A were measured daily from standard agonist concentration-response curves in CHO(dHFr-)-OX1R and -OX2R cell lines. All compounds were dissolved in 100% DMSO. Inhibition curves were determined by addition of 11 concentrations (0.0001-10 μM) of inhibitory compounds and using EC80 value of orexin-A as agonist (a concentration which gave 80% of max agonist response, determined daily). The antagonists were applied 25 min (incubation at 37° C.) before the application of the agonist. Responses were measured as peak increase in fluorescence minus basal, normalized to the maximal stimulatory effect induced by EC80 value of orexin-A or orexin-B. Inhibition curves were fitted according to the Hill equation: y=100/(1+(x/IC50)^nH), where nH=slope factor using Excel-fit 4 software (Microsoft). Kb values were calculated according to the following equation Kb=IC50/(1+[A]/EC50) where A is the concentration of agonist added which is very close to agonist EC80 value, and IC50 and EC50 values were derived from the antagonist inhibition and orexin-A or B agonist curves, respectively.

Kb [µM] | Structure (SMILES)
0.304 | Cc1ccc(C(F)(F)F)c(C(=O)N2CC[C@@H](CNc3nc4ccc(Cl)cc4o3)C2)c1 [Example 14, {(S)-3-[(6-Chloro-benzooxazol-2-ylamino)-methyl]-pyrrolidin-1-yl}-(5-methyl-2-trifluoromethyl-phenyl)-methanone]
0.0573 | COc1cccc(OC)c1C(=O)N1CC[C@@H](CNc2nc3ccc(Cl)cc3o2)C1 [Example 2, {(S)-3-[(6-Chloro-benzooxazol-2-ylamino)-methyl]-pyrrolidin-1-yl}-(2,6-dimethoxy-phenyl)-methanone]
0.331 | Cc1ccc(C(F)(F)F)c(C(=O)N2CC[C@@H](CNc3cnc4cc(Cl)ccc4n3)C2)c1 [Example 28, {(S)-3-[(6-Chloro-quinoxalin-2-ylamino)-methyl]-pyrrolidin-1-yl}-(5-methyl-2-trifluoromethyl-phenyl)-methanone]
0.69 | O=C(c1ccccc1OC(F)(F)F)N1CC[C@@H](CNc2nc3cccc(F)c3o2)C1 [Example 19, {(S)-3-[(7-Fluoro-benzooxazol-2-ylamino)-methyl]-pyrrolidin-1-yl}-(2-trifluoromethoxy-phenyl)-methanone]
0.0623 | Cc1onc(-c2ccccc2)c1C(=O)N1CC[C@@H](CNc2nc3ccc(F)cc3s2)C1 [Example 7, {(S)-3-[(6-Fluoro-benzothiazol-2-ylamino)-methyl]-pyrrolidin-1-yl}-(5-methyl-3-phenyl-isoxazol-4-yl)-methanone]
0.0819 | Cc1onc(-c2ccccc2)c1C(=O)N1CC[C@@H](CNc2nc3ccc(Cl)cc3o2)C1 [Example 15, {(S)-3-[(6-Chloro-benzooxazol-2-ylamino)-methyl]-pyrrolidin-1-yl}-(5-methyl-3-phenyl-isoxazol-4-yl)-methanone]
0.675 | COc1ccc(C)cc1C(=O)N1CC[C@@H](CNc2nc3cccc(F)c3o2)C1 [Example 25, {(S)-3-[(7-Fluoro-benzooxazol-2-ylamino)-methyl]-pyrrolidin-1-yl}-(2-methoxy-5-methyl-phenyl)-methanone]
0.178 | O=C(c1ccccc1OC(F)(F)F)N1CC[C@@H](CNc2cnc3cc(Cl)ccc3n2)C1 [Example 26, {(S)-3-[(6-Chloro-quinoxalin-2-ylamino)-methyl]-pyrrolidin-1-yl}-(2-trifluoromethoxy-phenyl)-methanone]
0.147 | O=C(c1cnoc1-c1ccccc1)N1CC[C@@H](CNc2nc3ccc(Cl)cc3o2)C1 [Example 16, {(S)-3-[(6-Chloro-benzooxazol-2-ylamino)-methyl]-pyrrolidin-1-yl}-(5-phenyl-isoxazol-4-yl)-methanone]
0.337 | Cc1ccc(Cl)c(C(=O)N2CC[C@@H](CNc3nc4ccc(F)cc4s3)C2)c1 [Example 9, (2-Chloro-5-methyl-phenyl)-{(S)-3-[(6-fluoro-benzothiazol-2-ylamino)-methyl]-pyrrolidin-1-yl}-methanone]
0.0566 | Cc1onc(-c2ccccc2)c1C(=O)N1CC[C@@H](CNc2nc3cccc(F)c3o2)C1 [Example 22, {(S)-3-[(7-Fluoro-benzooxazol-2-ylamino)-methyl]-pyrrolidin-1-yl}-(5-methyl-3-phenyl-isoxazol-4-yl)-methanone]
0.123 | O=C(c1cnoc1-c1ccccc1)N1CC[C@@H](CNc2nc3cccc(F)c3o2)C1 [Example 23, {(S)-3-[(7-Fluoro-benzooxazol-2-ylamino)-methyl]-pyrrolidin-1-yl}-(5-phenyl-isoxazol-4-yl)-methanone]
0.396 | Cc1ccc(C(F)(F)F)c(C(=O)N2CC[C@@H](CNc3nc4cccc(F)c4o3)C2)c1 [Example 21, {(S)-3-[(7-Fluoro-benzooxazol-2-ylamino)-methyl]-pyrrolidin-1-yl}-(5-methyl-2-trifluoromethyl-phenyl)-methanone]
0.0839 | O=C(c1ccccc1OC(F)(F)C(F)F)N1CC[C@@H](CNc2cnc3cc(Cl)ccc3n2)C1 [Example 27, {(S)-3-[(6-Chloro-quinoxalin-2-ylamino)-methyl]-pyrrolidin-1-yl}-[2-(1,1,2,2-tetrafluoro-ethoxy)-phenyl]-methanone]
0.539 | Cc1ccc(Cl)c(C(=O)N2CC[C@@H](CNc3cnc4cc(Cl)ccc4n3)C2)c1 [Example 31, (2-Chloro-5-methyl-phenyl)-{(S)-3-[(6-chloro-quinoxalin-2-ylamino)-methyl]-pyrrolidin-1-yl}-methanone]
0.754 | Cc1ccc(Cl)c(C(=O)N2CC[C@@H](CNc3nc4cccc(F)c4o3)C2)c1 [Example 24, (2-Chloro-5-methyl-phenyl)-{(S)-3-[(7-fluoro-benzooxazol-2-ylamino)-methyl]-pyrrolidin-1-yl}-methanone]
0.185 | COc1ccc(C)cc1C(=O)N1CC[C@@H](CNc2cnc3cc(Cl)ccc3n2)C1 [Example 32, {(S)-3-[(6-Chloro-quinoxalin-2-ylamino)-methyl]-pyrrolidin-1-yl}-(2-methoxy-5-methyl-phenyl)-methanone]
0.0829 | O=C(c1cnoc1-c1ccccc1)N1CC[C@@H](CNc2nc3ccc(F)cc3s2)C1 [Example 8, {(S)-3-[(6-Fluoro-benzothiazol-2-ylamino)-methyl]-pyrrolidin-1-yl}-(5-phenyl-isoxazol-4-yl)-methanone]
0.407 | Cc1onc(-c2ccccc2)c1C(=O)N1CC[C@@H](CNc2cnc3cc(Cl)ccc3n2)C1 [Example 29, {(S)-3-[(6-Chloro-quinoxalin-2-ylamino)-methyl]-pyrrolidin-1-yl}-(5-methyl-3-phenyl-isoxazol-4-yl)-methanone]
0.0772 | O=C(c1ccccc1OC(F)(F)C(F)F)N1CC[C@@H](CNc2nc3cccc(F)c3o2)C1 [Example 20, {(S)-3-[(7-Fluoro-benzooxazol-2-ylamino)-methyl]-pyrrolidin-1-yl}-[2-(1,1,2,2-tetrafluoro-ethoxy)-phenyl]-methanone]
0.0318 | O=C(c1ccccc1OC(F)(F)C(F)F)N1CC[C@@H](CNc2nc3ccc(F)cc3s2)C1 [Example 5, {(S)-3-[(6-Fluoro-benzothiazol-2-ylamino)-methyl]-pyrrolidin-1-yl}-[2-(1,1,2,2-tetrafluoro-ethoxy)-phenyl]-methanone]
0.115 | Cc1ccc(C(F)(F)F)c(C(=O)N2CC[C@@H](CNc3nc4ccc(F)cc4s3)C2)c1 [Example 6, {(S)-3-[(6-Fluoro-benzothiazol-2-ylamino)-methyl]-pyrrolidin-1-yl}-(5-methyl-2-trifluoromethyl-phenyl)-methanone]
0.34 | O=C(c1cnoc1-c1ccccc1)N1CC[C@@H](CNc2cnc3cc(Cl)ccc3n2)C1 [Example 30, {(S)-3-[(6-Chloro-quinoxalin-2-ylamino)-methyl]-pyrrolidin-1-yl}-(5-phenyl-isoxazol-4-yl)-methanone]
0.149 | O=C(c1ccccc1OC(F)(F)C(F)F)N1CC[C@@H](CNc2nc3ccc(Cl)cc3o2)C1 [Example 13, {(S)-3-[(6-Chloro-benzooxazol-2-ylamino)-methyl]-pyrrolidin-1-yl}-[2-(1,1,2,2-tetrafluoro-ethoxy)-phenyl]-methanone]
0.165 | COc1ccc(C)cc1C(=O)N1CC[C@@H](CNc2nc3ccc(F)cc3s2)C1 [Example 10, {(S)-3-[(6-Fluoro-benzothiazol-2-ylamino)-methyl]-pyrrolidin-1-yl}-(2-methoxy-5-methyl-phenyl)-methanone]
